Test results as given in patent US11572590B2, “Methods for evaluating tumor cell spheroids using 3D microfluidic cell culture device” (Dana-Farber Cancer Institute, Inc., priority 2017, dated 2023).
Like-named read-outs stand apart in the source and are kept apart here.

How the values were obtained:
Assay in all cases: SelectScreen Kinase Profiling, single point inhibition and IC50 for off-target kinases
Format in all cases: biochemical
off-target kinases [1] = target: T1, off-target kinases (Homo sapiens, UniProt Q12851); details: MAP4K2 (GCK), ZLYTE, ATP Km app
T1 sequence (Q12851 1-820): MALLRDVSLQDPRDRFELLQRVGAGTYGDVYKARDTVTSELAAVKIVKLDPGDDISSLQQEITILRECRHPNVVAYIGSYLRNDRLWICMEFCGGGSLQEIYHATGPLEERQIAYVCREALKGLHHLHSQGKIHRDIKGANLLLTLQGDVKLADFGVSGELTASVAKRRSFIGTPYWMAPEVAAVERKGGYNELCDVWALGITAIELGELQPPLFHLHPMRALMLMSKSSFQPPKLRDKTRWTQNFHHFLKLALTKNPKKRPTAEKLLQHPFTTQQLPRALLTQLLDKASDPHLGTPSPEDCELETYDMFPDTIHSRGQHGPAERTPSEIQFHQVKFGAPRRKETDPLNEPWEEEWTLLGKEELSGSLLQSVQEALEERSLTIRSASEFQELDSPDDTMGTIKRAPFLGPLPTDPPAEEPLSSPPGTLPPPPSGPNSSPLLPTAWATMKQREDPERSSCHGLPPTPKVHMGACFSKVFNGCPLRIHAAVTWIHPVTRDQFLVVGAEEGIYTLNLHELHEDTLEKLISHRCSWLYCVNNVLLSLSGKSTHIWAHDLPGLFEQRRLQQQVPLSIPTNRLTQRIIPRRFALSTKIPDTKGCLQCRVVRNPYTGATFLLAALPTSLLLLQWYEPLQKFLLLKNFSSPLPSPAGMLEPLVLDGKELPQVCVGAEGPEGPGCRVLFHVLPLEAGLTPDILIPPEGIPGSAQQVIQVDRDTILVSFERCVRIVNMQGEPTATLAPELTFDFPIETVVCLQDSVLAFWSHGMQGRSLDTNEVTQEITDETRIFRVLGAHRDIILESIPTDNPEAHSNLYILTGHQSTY

off-target kinases [2] = target: off-target kinases (Homo sapiens, UniProt Q5S007); details: ATP Km app, Adapta
off-target kinases [3] = target: off-target kinases (Homo sapiens, UniProt Q9Y572); details: RIPK3, LanthaScreen Binding
off-target kinases (Homo sapiens, UniProt Q9Y572), sequence (Q9Y572 whole entry): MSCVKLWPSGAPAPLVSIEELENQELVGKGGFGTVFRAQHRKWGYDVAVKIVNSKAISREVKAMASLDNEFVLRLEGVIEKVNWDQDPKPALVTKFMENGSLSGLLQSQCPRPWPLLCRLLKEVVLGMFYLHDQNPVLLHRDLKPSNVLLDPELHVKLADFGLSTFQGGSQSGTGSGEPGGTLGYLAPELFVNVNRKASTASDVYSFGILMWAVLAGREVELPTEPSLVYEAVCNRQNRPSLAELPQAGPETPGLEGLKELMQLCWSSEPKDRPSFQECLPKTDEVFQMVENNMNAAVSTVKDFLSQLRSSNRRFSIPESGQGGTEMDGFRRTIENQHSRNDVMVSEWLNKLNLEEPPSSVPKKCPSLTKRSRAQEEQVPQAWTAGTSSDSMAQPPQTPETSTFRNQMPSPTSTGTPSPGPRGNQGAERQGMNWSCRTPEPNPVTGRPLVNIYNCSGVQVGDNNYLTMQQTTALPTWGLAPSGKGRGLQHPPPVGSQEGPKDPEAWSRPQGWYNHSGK

off-target kinases (Homo sapiens, UniProt Q5S007), sequence (Q5S007 whole entry): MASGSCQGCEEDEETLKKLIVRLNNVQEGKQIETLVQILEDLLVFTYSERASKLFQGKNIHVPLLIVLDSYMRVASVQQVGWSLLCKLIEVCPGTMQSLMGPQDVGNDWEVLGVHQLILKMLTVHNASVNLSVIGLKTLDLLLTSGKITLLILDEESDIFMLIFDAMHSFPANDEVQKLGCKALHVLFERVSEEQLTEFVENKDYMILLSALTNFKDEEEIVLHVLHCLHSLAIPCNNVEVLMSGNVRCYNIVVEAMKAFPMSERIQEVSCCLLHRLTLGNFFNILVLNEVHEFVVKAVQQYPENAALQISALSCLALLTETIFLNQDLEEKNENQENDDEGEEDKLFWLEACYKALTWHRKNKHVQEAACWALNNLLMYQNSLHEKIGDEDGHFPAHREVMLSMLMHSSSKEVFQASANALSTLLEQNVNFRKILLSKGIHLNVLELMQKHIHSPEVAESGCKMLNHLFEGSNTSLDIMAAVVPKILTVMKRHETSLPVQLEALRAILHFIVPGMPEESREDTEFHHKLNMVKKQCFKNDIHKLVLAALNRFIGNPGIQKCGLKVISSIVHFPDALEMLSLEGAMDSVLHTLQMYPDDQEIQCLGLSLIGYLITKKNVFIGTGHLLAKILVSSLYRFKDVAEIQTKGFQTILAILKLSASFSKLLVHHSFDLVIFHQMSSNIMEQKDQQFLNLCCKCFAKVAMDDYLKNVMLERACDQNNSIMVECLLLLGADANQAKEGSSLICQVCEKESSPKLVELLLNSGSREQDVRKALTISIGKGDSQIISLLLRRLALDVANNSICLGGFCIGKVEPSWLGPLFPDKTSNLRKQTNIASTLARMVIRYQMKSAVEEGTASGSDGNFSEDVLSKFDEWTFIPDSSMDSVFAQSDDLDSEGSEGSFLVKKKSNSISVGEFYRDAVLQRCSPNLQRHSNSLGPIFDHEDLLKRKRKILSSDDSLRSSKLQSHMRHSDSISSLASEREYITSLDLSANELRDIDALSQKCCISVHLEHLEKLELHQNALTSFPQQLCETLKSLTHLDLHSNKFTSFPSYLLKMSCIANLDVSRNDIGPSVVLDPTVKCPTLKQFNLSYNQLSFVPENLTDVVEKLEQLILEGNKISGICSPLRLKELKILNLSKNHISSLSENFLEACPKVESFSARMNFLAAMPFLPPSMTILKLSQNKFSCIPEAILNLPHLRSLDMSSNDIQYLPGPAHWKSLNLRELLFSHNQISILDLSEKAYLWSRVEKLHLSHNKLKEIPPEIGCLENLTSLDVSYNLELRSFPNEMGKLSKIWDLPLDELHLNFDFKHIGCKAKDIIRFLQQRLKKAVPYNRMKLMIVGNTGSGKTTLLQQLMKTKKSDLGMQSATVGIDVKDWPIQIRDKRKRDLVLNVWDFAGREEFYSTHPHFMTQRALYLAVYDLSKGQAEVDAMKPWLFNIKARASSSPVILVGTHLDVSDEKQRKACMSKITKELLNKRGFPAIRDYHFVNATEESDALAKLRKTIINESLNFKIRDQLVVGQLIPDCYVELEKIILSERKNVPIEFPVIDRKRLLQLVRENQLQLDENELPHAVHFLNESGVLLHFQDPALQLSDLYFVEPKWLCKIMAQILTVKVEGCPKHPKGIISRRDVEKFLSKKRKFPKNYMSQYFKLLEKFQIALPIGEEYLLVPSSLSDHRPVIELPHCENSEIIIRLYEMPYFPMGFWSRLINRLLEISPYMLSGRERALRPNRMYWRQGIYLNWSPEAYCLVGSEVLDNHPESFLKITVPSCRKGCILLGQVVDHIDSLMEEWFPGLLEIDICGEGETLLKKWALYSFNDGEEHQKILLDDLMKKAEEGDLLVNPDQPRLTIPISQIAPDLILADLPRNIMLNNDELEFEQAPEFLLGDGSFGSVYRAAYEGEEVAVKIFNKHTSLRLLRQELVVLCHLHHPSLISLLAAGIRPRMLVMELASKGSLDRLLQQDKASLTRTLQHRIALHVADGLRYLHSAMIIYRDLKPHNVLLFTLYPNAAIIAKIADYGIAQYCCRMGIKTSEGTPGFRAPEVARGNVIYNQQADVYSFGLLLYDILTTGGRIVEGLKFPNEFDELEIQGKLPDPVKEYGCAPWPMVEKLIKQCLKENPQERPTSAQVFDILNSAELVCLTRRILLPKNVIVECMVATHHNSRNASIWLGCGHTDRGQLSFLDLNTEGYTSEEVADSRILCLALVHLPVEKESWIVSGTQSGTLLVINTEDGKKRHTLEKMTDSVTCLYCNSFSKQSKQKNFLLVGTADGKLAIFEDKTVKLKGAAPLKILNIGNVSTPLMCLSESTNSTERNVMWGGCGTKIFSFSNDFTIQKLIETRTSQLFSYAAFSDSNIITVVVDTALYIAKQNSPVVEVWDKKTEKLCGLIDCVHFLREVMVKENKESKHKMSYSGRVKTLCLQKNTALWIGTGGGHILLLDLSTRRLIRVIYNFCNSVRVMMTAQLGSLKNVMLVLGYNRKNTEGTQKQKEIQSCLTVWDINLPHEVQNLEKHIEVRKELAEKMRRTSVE

**Q.** What does the source list for N#Cc1cc(-c2ncnc(Nc3ccc(N4CCN(C5COC5)CC4)cc3)n2)ccc1OC1CCOCC1 [Compound 1, 5-(4-((4-(4-(oxetan-3-yl)piperazin-1-yl)phenyl)amino)-1,3,5-triazin-2-yl)-2-((tetrahydro-2H-pyran-4-yl)oxy)benzonitrile]?
**A.** inhibition (off-target kinases [1]; read-out: % Inhibition 1): 6%; inhibition (off-target kinases [1]; read-out: % Inhibition 2): -2%; inhibition (off-target kinases [1]; read-out: % Inhibition Avg): 2%; inhibition (off-target kinases [2]; LRRK2, read-out: % Inhibition 1): 99%; inhibition (off-target kinases [2]; LRRK2, read-out: % Inhibition 2): 100%; inhibition (off-target kinases [2]; LRRK2, read-out: % Inhibition Avg): 100%; inhibition (off-target kinases [2]; LRRK2 FL, read-out: % Inhibition 1): 98%; inhibition (off-target kinases [2]; LRRK2 FL, read-out: % Inhibition 2): 98%; inhibition (off-target kinases [2]; LRRK2 FL, read-out: % Inhibition Avg): 98%; inhibition (off-target kinases [3]; read-out: % Inhibition 1): -1%; inhibition (off-target kinases [3]; read-out: % Inhibition 2): 1%; inhibition (off-target kinases [3]; read-out: % Inhibition Avg): 0%
